Earlier results in patent US20160045465A1, “THERAPEUTIC FORMULATIONS FOR THE TREATMENT OF COLD AND FLU-LIKE SYMPTOMS” (Kingsway Pharmaceuticals Inc., priority 2007, published 2016).
Where a name gives a salt, the structure may show the parent alone. Read-outs that look alike come from different tables or passages of the source.

Assays:
[1] = system: fever
[2] = not given; remark: listed apart in the source
[3] = system: nasal congestion
[4] = in vivo
[5] = children, ibuprofen suspension, oral
[6] = oral, 30 mg as tablets or oral solution

SMILES: CC(=O)Nc1ccc(O)cc1 [acetaminophen, N-(4-hydroxyphenyl)ethanamide]
- fraction in the body undergoing conjugation (glucuronic acid, sulphuric acid) (in vivo): 80-85%
- plasma half-life (in vivo): 1.2 to 3.0 h
- time to peak plasma concentrations (oral administration of immediate release acetaminophen preparations): 0.167 to 1 h

SMILES: CC(C)Cc1ccc(C(C)C(=O)O)cc1 (centres unmarked) [ibuprofen, 2-[4-(2-methylpropyl)phenyl]propanoic acid]
- time to reach maximal plasma concentration (conventional tablets): approximately 120 minutes
- time until excretion is essentially complete (following oral administration): ≤ 24 h
- fraction of an oral dose absorbed from the GI tract (in vivo, po): Approximately 80%
- reduction of peak plasma concentrations when administered with food (with food): 30-50%
- change of time to achieve peak plasma concentrations when administered with food (with food, given as 'reduced by'): 30 to 60 min
- onset of antipyretic effect [1, 5]: ≤ 1 h
- time of peak antipyretic effect [1, 5]: 2 to 4 h
- duration of antipyretic effect ([1]; single ibuprofen suspension doses of 10-mg/kg): up to 8 hours

SMILES: CNC[C@H](O)c1cccc(O)c1 [phenylephrine hydrochloride]
- pKa [2]: 8.86

SMILES: CNC[C@H](O)c1cccc(O)c1 [phenylephrine]
- elimination half-life (in vivo): 2 to 3 h
- bioavailability following oral administration (oral): approximately 38%
- time of peak serum concentrations (oral): 0.75 to 2.0 h
- duration of nasal decongestion ([3]; oral phenylephrine): 2 to 4 h
- onset of nasal decongestion ([3]; oral phenylephrine): 15 to 20 min
- efficacy compared with pseudoephedrine [4]: less efficacious than pseudoephedrine

SMILES: CN[C@@H](C)[C@@H](O)c1ccccc1 [pseudoephedrine hydrochloride]
- duration of nasal decongestion ([3]; 120 mg in extended-release capsules): up to 12 hours
- duration of nasal decongestion ([3]; oral administration of 60 mg): 8 h
- duration of nasal decongestion [3, 6]: 4 to 6 h
- onset of nasal decongestion [3, 6]: ≤ 30 min

SMILES: CN[C@@H](C)[C@@H](O)c1ccccc1 [pseudoephedrine]
- time to peak plasma concentrations (60-mg dose as an oral solution): 1.39 to 2.0 h
- time to peak plasma concentrations (120-mg dose as an oral solution): 1.84 to 1.97 h
- time to peak plasma concentrations (extended-release products): 3.8 to 6.1 h
- fraction of a dose excreted unchanged in urine (in vivo): 55-96%
- elimination half-life (urinary pH 5): 3 to 6 h
- elimination half-life (urinary pH 5.8): 5 to 8 h
- elimination half-life (urinary pH 8): 9 to 16 h
